Measured values reported in patent publication US9809604B2, “DGAT1 inhibitor and preparation method and use thereof” (Qingdao Huanghai Pharmaceutical Co., Ltd., priority 2013, dated 2017).
Values after ≈ are worked out from the molar mass of the structure shown. Like-named read-outs stand apart in the source and are kept apart here.

Tests used:
DGAT1 [1] = target: T1, DGAT1 (Homo sapiens, UniProt O75907); test: Human DGAT1 IC50 enzyme assay (Flashplate, 14C-labeled acyl-CoA); format: biochemical; design: made in house
T1 sequence (O75907 1-488): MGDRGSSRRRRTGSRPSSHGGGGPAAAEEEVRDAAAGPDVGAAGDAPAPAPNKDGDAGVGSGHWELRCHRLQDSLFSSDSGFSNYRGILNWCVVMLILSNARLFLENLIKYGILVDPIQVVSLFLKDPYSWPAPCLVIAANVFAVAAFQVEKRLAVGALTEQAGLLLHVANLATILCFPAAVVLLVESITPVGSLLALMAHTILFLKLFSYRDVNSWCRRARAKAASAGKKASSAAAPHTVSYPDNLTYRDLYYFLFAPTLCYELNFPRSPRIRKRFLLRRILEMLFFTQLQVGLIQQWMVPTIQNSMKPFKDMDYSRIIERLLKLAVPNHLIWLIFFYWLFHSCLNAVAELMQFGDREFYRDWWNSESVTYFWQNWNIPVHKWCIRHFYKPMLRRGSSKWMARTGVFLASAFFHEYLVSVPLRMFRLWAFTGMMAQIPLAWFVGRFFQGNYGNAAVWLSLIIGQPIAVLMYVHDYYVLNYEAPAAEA
Protocol: The ability of compounds to inhibit DGAT enzyme activity is determined by calculating IC50 values of test compounds. Ki values of DGAT1 are calculated as follows: Cheng-Prusoff equation: Ki=IC50/(1+[S]/Km)
(1) Human DGAT1 IC50 (nM) Experiment
Human DGAT1 activity was determined as follows:
(§1) Expressing human DGAT1 enzyme, used diacylglycerol and 14C-labeled acyl-CoA as the substrate, choose PE Company Flashplate testing board to build DGAT1 enzyme reaction system. 14C-labeled acyl-CoA binds to diacylglycerol by covalent bonding after enzymology reaction, and generates the product of 14C-labeled triglyceride. 14C-labeled acyl-CoA substrate is dissolved in reaction solution and 14C-labeled triglyceride product combine with phospholipids of Flashplate plate bottom layer, thus effectively separate labeled substrates and products. The radioactive of 14C-labeled triglyceride which is combined with phospholipid layer is counted, and the potencies of DGAT-1 inhibition for the compounds are determined by calculating the IC50 values.

[2] = Plasma pharmacokinetics in male SD rats; format: in vivo; conditions: rat; for AUC(0-t) / half-life / Vd / bioavailability: male, SD, plasma; for AUC(0-t): read-out: AUC0-1 (ng · n/mL); for half-life: read-out: T1/2 (b) (converted); for Vd: intravenous, 2 mg/kg, read-out: Vdss; for bioavailability: oral, 10 mg/kg
Protocol: (3) Pharmacokinetics of Test Compounds
The purpose of this study is to determine the plasma pharmacokinetics of male SD rats. Two animals will receive a solution of test article in vehicle by single intravenous bolus via tail vein; the dosage is 2 mg/kg. Blood samples are taken at specified time points (0, 0.0833, 0.25, 0.5, 1, 2, 4, 7, 24 h) after dosing. Another two animals will receive a solution or suspension of TA in vehicle by oral gavage at 10 mg/kg. The schedule for sample collection is 0.5, 1, 2, 3, 4, 6, 24 h after dosing. A LC/MS/MS method is used to measure the concentration of test compound in plasma. Non-compartmental pharmacokinetic analysis is performed on the plasma concentration-time data. PK parameters of calculations are done using Phoenix WinNonlin. 6.2.1 software program.

Solubility at pH 7.4 = format: physicochemical; conditions: pH 7.4, aqueous buffer; read-out: Sol pH 7.4
[3] = Diet induced obesity in mice; format: in vivo; conditions: DIO mice
Protocol: (2) Diet Induced Obesity in Mice
Male C57bl/6J mice (6 weeks) were individually housed in hanging wire cages at 20-25° C. with a 12:12 hour light:dark cycle (Humidity: 40˜70%). After one week acclimation, the mice are fed with high fat pelleted diet (D12492i, Research Diets, Inc) and fresh water, ad libitum. Typically; C57BL/6J male mice become obese, and reach 40-50 g after 12-14 weeks of high fat diet treatment.
Animals accept oral gavages acclimation for two weeks. Then next, they are dosed with test articles or vehicle (bid) accordingly for 7 day. Food intake and body weight are recorded every day. Data are graphed by Graph Pad Prism 5.0 and evaluated using SPSS, p<0.05 is considered to be statistically significant.

DGAT1 [4] = target: T1, DGAT1; test: In vitro assay in HEK-293 cells (13C-labeled oleic acid incorporation into TG, LC/MS/MS); format: cell-based; design: endogenous DGAT1-expressing catalytic ^13C-labeled oleic acid incorporate to TG; endogenous in cells; host or cells: HEK293; conditions: for EC50: HEK293 cells
Source text: In Vitro Assay in HEK-293 Cells:
We treated HEK293 cells with stable isotope ^13C-labeled oleic acid and endogenous DGAT1-expressing catalytic ^13C-labeled oleic acid incorporate to TG. The extraction and separation of cell suspension is to obtain the triglycerides composition. A LC/MS/MS method is used to measure the concentration of ^13C in TG to determine catalytic reaction rate of DGAT1, then determine the compound of DGAT1 inhibition (IC50).

[5] = test system: plasma triacylglycerol levels; test: Lipid tolerance test in mice; format: in vivo
Protocol: (1) Lipid Tolerance Test in Mice:
CDI mice (30 g or so) were individually housed in hanging wire cages at 20-25° C. with a 12:12 hour light:dark cycle (Humidity: 40˜70%). The mice had ad libitum access to water. On the day of experimentation, food jars were removed from each cage 16 hours prior to rate received either vehicle or test article based on a randomization plan generated by randomization. After sixty minutes, oral administration (gavage) of corn oil at a dose volume of 6 mL/kg (time=0). Blood samples were obtained from each mouse via tail snip procedure at −0.5, 0.5, 1, 2 and 4 hours. 20 ul of blood sampling will be rapidly collected, and then is centrifuged at 7000 rpm for 10 min to determine plasma triacylglycerol levels. Triglyceride was quantitated using TG ELISA kit. All data will be analyzed using SPSS. p<0.05 is considered to be statistically significant.

mouse DGAT1 = target: T2, mouse DGAT1 (Mus musculus, UniProt Q9Z2A7); test: Mouse DGAT1 IC50 enzymatic assay; format: biochemical
T2 construct: made in house
T2 sequence (Q9Z2A7 1-498): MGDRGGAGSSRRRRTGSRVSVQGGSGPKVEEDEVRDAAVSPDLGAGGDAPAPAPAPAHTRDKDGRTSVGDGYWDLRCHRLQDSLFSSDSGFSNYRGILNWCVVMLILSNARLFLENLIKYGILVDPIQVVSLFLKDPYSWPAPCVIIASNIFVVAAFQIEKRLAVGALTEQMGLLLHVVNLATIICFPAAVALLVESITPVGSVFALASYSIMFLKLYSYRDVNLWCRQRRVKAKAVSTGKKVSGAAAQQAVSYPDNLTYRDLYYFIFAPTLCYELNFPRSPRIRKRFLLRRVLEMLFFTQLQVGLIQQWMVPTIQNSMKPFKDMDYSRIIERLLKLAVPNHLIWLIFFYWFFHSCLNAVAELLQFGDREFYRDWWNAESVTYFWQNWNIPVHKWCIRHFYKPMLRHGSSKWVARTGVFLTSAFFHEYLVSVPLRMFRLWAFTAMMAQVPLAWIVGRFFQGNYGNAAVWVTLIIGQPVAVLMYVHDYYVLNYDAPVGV
Protocol: as §1
Mouse DGAT1 activity was determined as follows:
Mouse DGAT1 IC50 determination method: in addition to expression of mouse DGAT1, experiment method with human DGAT1 enzymatic assay is the same.

[6] = average of first and second, read-out: hDGAT1 IC50(nM) Average
[7] = first determination, read-out: hDGAT1 IC50(nM) First
[8] = second determination, read-out: hDGAT1 IC50(nM) Second
[9] = iv, 1.78-2.06 mg/kg as printed in each cell

Compound | IC50 (DGAT1 [1]; [6]) [nM] | IC50 (DGAT1 [1]; [7]) [nM] | IC50 (DGAT1 [1]; [8]) [nM] | AUC(0-t) [2, 9] [ng·h/mL] | bioavailability [2] [%] | further results
Nc1ncnc2c1C(=O)N(c1ccc([C@H]3CC[C@H](CC(=O)O)CC3)cc1)CCO2 [PF-04620110, reference compound] | – | – | – | 2920 | 109 | –
Cc1cc(N2CCOc3ncnc(N)c3C2=O)cc(C)c1-c1cnn(CC(=O)O)c1 [Compound 67, 2-(4-(4-(4-amino-5-oxo-7,8-dihydropyrimido [5,4-f][1,4]oxazepin-6(5H)-yl)-2,6-dimethylphenyl)-1H-pyrazol-1-yl)acetic acid] | 53.2 | 56.1 | 50.3 | – | – | –
Cc1nn(CCC(=O)O)c(C)c1-c1ccc(N2CCOc3ncnc(N)c3C2=O)cc1Cl [Compound 38, 3-(4-(4-(4-amino-5-oxo-7,8-dihydropyrimido[5,4-f][1,4]oxazepin-6(5H)-yl)-2-chlorophenyl)-3,5-dimethyl-1H-pyrazol-1-yl)propanoic acid] | 50.7 | 46.5 | 55 | – | – | –
Nc1ncnc2c1C(=O)N(c1ccc3c(c1)CCC(OCC(F)(F)F)C3)CCO2 (single isomer, unassigned; peak1) [Compound 105 (peak1), 4-amino-6-(6-(2,2,2-trifluoroethoxy)-5,6,7,8-tetrahydonaphthalen-2-yl)-7,8-dihydropyrimido[5,4-f][1,4]oxazepin-5-(6H)-one] | 73.3 | 103 | 43.3 | – | – | –
Cc1cc(N2CCOc3ncnc(N)c3C2=O)cc(F)c1N1CCN(CC(=O)O)C1=O [Compound 26, 2-(3-(4-(4-amino-5-oxo-7,8-dihydropyrimido [5,4-f][1,4]oxazepin-6(5H)-yl)-2-fluoro-6-methylphenyl)-2-oxoimidazolidin-1-yl) acetic acid] | 50.6 | 41.3 | 60 | – | – | –

The remaining molecules from weak to strong by IC50 (DGAT1 [1]; [6]), led by results:

IC50 (DGAT1 [1]; [6]) [nM] | IC50 (DGAT1 [1]; [7]) [nM] | IC50 (DGAT1 [1]; [8]) [nM] | AUC(0-t) [2, 9] [ng·h/mL] | bioavailability [2] [%] | Compound | further results
49 | 68.2 | 29.7 | 42900 | 14.9 | O=C(O)C[C@H]1CC[C@H](c2ccc(-c3ccc(Nc4ccc(C(F)(F)F)nc4)cn3)cc2)CC1 [Pradigastat, reference compound] | half-life [2, 9]: 2.19 h; half-life ([2]; po, 8.94-9.33 mg/kg): 2.33 h; Vd [2]: 0.15 L/kg; CI [2]: 0.70 mL/min/kg; solubility (Solubility at pH 7.4): 22 µM (≈ 10 µg/mL); body weight ([3]; 30 mpk BID): increased slight; food intake ([3]; 30 mpk BID): increased slight; 7 days Cumulative Body Weight Change (%) ([3]; 30mpk BID): 1.72%; 7 days Cumulative Food Intake Change (%) ([3]; 30mpk BID): 5.85%; EC50 (DGAT1 [4]): 3.65 nM; Inhibtion % @ 2 h 1 MPK PO [5]: 34% inh; IC50 (mouse DGAT1): 30.2 nM
36.9 | 43.5 | 30.4 | – | – | Nc1ncnc2c1C(=O)N(c1ccc(N3CCN(CC(=O)O)C3=O)c(OC(F)(F)F)c1)CCO2 [Compound 7, 2-(3-(4-(4-amino-5-oxo-7,8-dihydropyrimido[5,4-f][1,4]oxazepin-6(5H)-yl)-2-(trifluoromethoxy)phenyl)-2-oxoimidazolidin-1-yl)acetic acid] | –
31.7 | 27 | 36.4 | 17700 | 56.8 | Cc1cc(N2CCOc3ncnc(N)c3C2=O)cc(C)c1-c1ccc2ccn(CC(F)(F)F)c(=O)c2c1 [Compound 105, 4-amino-6-(3,5-dimethyl-4-(1-oxo-2-(2,2,2-trifluoroethyl)-1,2-dihydroisoquinolin-7-yl)phenyl)-7,8-dihydropyrimido[5,4-f][1,4]oxazepin-5-(6H)-one] | half-life [2, 9]: 3.81 h; half-life ([2]; po, 8.94-9.33 mg/kg): 2.93 h; Vd [2]: 0.54 L/kg; CI [2]: 1.96 mL/min/kg; solubility (Solubility at pH 7.4): 70 µM (≈ 35.7 µg/mL); 7 days Cumulative Body Weight Change (%) ([3]; 10mpk BID): −1.06%; 7 days Cumulative Food Intake Change (%) ([3]; 10mpk BID): −8.56%; EC50 (DGAT1 [4]): 3.64 nM; cell activity (DGAT1 [4]; compared with Pradigastat): better cell activity; Inhibtion % @ 2 h 1 MPK PO [5]: 118% inh; IC50 (mouse DGAT1): 33.6 nM
25.8 | 24.8 | 26.7 | – | – | Nc1ncnc2c1C(=O)N(c1ccc(-c3cnn(CCC(=O)O)c3)c(Cl)c1)CCO2 [Compound 35, 3-(4-(4-(4-amino-5-oxo-7,8-dihydropyrimido[5,4-f][1,4]oxazepin-6(5H)-yl)-2-chlorophenyl)-1H-pyrazol-1-yl)propanoic acid] | –
23.5 | 23.6 | 23.4 | – | – | CC(C)(F)CN1CCN(c2ccc(N3CCOc4ncnc(N)c4C3=O)cc2Cl)C1=O [Compound 31, 4-amino-6-(3-chloro-4-(3-(2-fluoro-2-methylpropyl)-2-oxoimidazolidin-1-yl)phenyl)-7,8-dihydropyrimido[5,4-f][1,4]oxazepin-5(6H)-one] | –
